Assay results published in BindingDB's records for doi:10.1016/j.bmcl.2017.12.053 (n/a, 2018).
pKi: −log10 of the molar value.

Experiments:
[1] = Inhibition of 20s immunoproteasome beta1 caspase-like activity in human spleen using Ac-Pro-Ala-Leu-AMC as substrate after 10 mins by fluorescence assay
[2] = Inhibition of 20s immunoproteasome beta5 chymotrypsin-like activity in human spleen using Suc-Leu-Leu-Val-Tyr-AMC as substrate after 10 mins by fluorescence assay
[3] = Inhibition of 20s immunoproteasome beta2 trypsin-like activity in human spleen using Boc-Leu-Arg-Arg-AMC as substrate after 10 mins by fluorescence assay
[4] = Inhibition of 20s constitutive proteasome beta1 caspase-like activity in human erythrocytes using Z-Leu-Leu-Glu-AMC as substrate after 10 mins by fluorescence assay
[5] = Inhibition of 20s constitutive proteasome beta2 trypsin-like activity in human erythrocytes using Boc-Leu-Arg-Arg-AMC as substrate after 10 mins by fluorescence assay

| Compound | pKi [1] | pKi [2] | pKi [3] | pKi [4] | pKi [5] |
| --- | --- | --- | --- | --- | --- |
| COc1ccc(/C=C2\NC(=S)N(c3ccccc3)C2=O)cc1O | 5.19 | 5.63 | – | – | – |
| O=C1/C(=C/c2ccc(Oc3ccccc3)cc2)NC(=S)N1c1cccc2ccccc12 | – | – | 5.25 | 5.02 | – |
| CSc1ccc(/C=C2\NC(=S)N(c3ccccc3)C2=O)cc1 | – | – | 5.36 | – | 4.70 |
| COc1ccc(/C=C2\NC(=S)N(c3ccccc3)C2=O)cc1OC | 5.58 | 5.70 | – | – | – |
| COc1ccc(/C=C2\NC(=S)N(c3ccccc3)C2=O)cc1 | – | 4.96 | – | – | – |
| COc1cc(/C=C2\NC(=S)N(c3ccccc3)C2=O)ccc1O | – | 4.94 | 5.17 | – | – |
